One compound from patent publication US20060178389A1, “Use of siramesine in the treatment of cancer” (priority 2003, published 2006) can be followed below.

In series [1] the test system is cultured tumor cell lines originating from tumors of the prostate, breast and cervix. Description: Induction of programmed cell death in cultured tumor cell lines (MTT / LDH release). The series is classed as cell-based, human. The settings on record: dose dependent, tumor cell lines of various origins incl. prostate. The text has this:
(§1) Murine fibrosarcoma cells WEHI-S, Wn902, Wn912, and WEHI-R4 are normal, vector control, Hsp70 overexpressing, and hTNF resistant cells, respectively. Other cell types tested include: Human breast cancer cell types MCF7-S1 and MDA-MB-468, and non-tumorigekic immortalized breast epithelial cells HBL100. MCF7 casp3.1 and −3.3 and neo2 are single cell clones expressing caspase3 and vector. MCF7 pCEP, -Bcl2 WT, -Bcl2 NT, -Bcl2 Acta, and -Bcl2 Cb5 are single cell clones expressing vector, wildtype Bcl2, cytoplasma localized Bcl2, mitochondria localized Bcl2, and ER localized Bcl2 (Maria Høyer Hansen, Apoptosis Laboratory, Danish Cancer Society). Human neuroblastoma cell line SK-N-MC cells (ATCC, USA). […]
(§2) Cell viability was measured using the MTT reduction assay. Conversion of the tetrazolium salt 3-(4,5-dimethylthiazole-2-yl)-2,5-diphenyltetrasodiumbromide (MTT, SIGMA-Aldrich) into the blue-colored formazan product was assessed spectrophotometrically by absorption at 570 nm using a Versamax microplate reader (Molecular Devices). The survival rate was determined as the percentage of untreated cells or inhibitor-treated cells: Cells were seeded into 96-well plate, containing 200 μL media, and treated the following day with drugs. The effect on cell viability was assessed 24-60 h after drug addition by removal of 100 μL media and addition of 25 μL MTT solution (1 mg/mL in PBS, sterile filtered). […]

Series [2] deals with N1H3T3 murine fibroblasts transduced with v-Ha-ras or c-src. Description: Sensitivity of fibroblasts towards Siramesine after oncogenic transformation. The conditions noted are these: upon oncogenic transformation by ras or src. The class given is cell-based.
Excerpt: as §1, §2

The subject of series [3] is WEHI-S cells. Description: Induction of apoptosis compared with reference sigma ligands, WEHI-S. The series is classed as cell-based, murine. The conditions noted are these: versus Haloperidol and pentazocine.
Excerpt: as §1, §2

In another series the test system is MCF7 cells. Description: Induction of apoptosis compared with reference sigma ligands, MCF7. The settings on record: versus Haloperidol and pentazocine. The series is classed as cell-based, human.
Excerpt: as §1, §2

Another series has as its system effector caspase. Description: Mode of cell death: nuclear morphology, caspase inhibitors, caspase 3/7-like activity. The series is classed as cell-based. An excerpt: (§3) The following protease inhibitors were used: zVAD-fmk, DEVD-fmk (Bachem Bubendorf, Switzerland), DEVD-CHO (Neosystems, Strasbourg, France), LEHD-CHO, zFA-fmk (Enzyme System Products, Livermore, Calif.), CA-074-Me (Peptides International, Louisville, Ky.), APC1138 (Celera Applied Biosystems, Foster City, Calif., USA),. Pepstatin A, PD150606, and calpain inhibitor I (CI) (Calbiochem, La Jolla, Calif.), TPCK (Boehringer Mannheim), pefabloc (AEBSF) (Roche Diagnostics, DK).
The cell death mode was assessed by the type of nuclear condensation and performed by hoechst staining (cell permeable Hoechst 33342, SIGMA-Aldrich) of drug-treated cells. Non cell permeable Sytox Green (Molecular Probes) was used to assay loss of membrane integrity and compared with nuclear morphological changes observed with Hoechst. Cells were incubated with 10.000× dilution of 25 mg/mL hoechst and /or 10.000× dilution of 5 mM sytox green for 5 min at 37° C. where after type of nuclear condensation and possible co-stain was analyzed using an inverted Olympus microscope IX-70.
To measure cytosolic cystein cathepsin enzyme activity, subconfluent cells seeded in 24-well plates were treated with an extraction buffer (250 mM sucrose, 20 mM HEPES, 10 mM KCl, 1.5 mM MgCl2, 1 mM EDTA, 1 mM EGTA, 1 mM pefablock; pH 7.5) containing 20 μg/mL digitonin for 12-15 min on ice. […]

The next series has as its system lysosomal cathepsins. Description: Release of lysosomal cathepsins (immunostaining of cathepsin B and L, purified lysosomes, cathepsin inhibitors). The class given is cell-based.
Excerpt: as §3
To measure cytosolic cystein cathepsin enzyme activity, subconfluent cells seeded in 24-well plates were treated with an extraction buffer (250 mM sucrose, 20 mM HEPES, 10 mM KCl, 1.5 mM MgCl2, 1 mM EDTA, 1 mM EGTA, 1 mM pefablock; pH 7.5) containing 20 μg/mL digitonin for 12-15 min on ice. To measure total cellular cystein cathepsin enzyme activity, cells were treated with the above extraction buffer containing 200 μg/mL digitonin for 12-15 min on ice. […]
Cells were exposed to the lysomotropic weak base and metachromatic fluorochrome acridine orange (AO, Molecular Probes) that accumulates in acidic compartments. […] Cells were either evaluated using an inverted Olympus microscope IX-70 or detached from the substratum and analyzed by flow cytometry using a FACSort (Becton Dickinson, San Jose, Calif.) with an argon ion laser with an output wavelength of 488 nm and analyzed using CELLQuest software. […]

Series [4] has as its system Tumor cells protected by ectopic expression of Bcl-2. Description: Killing of tumor cells with ectopic expression of Bcl-2. The settings on record: cells protected against most other anti-cancer drugs by ectopic expression of Bcl-2. The series is classed as cell-based.
Excerpt: as §1, §2

The subject of the next series is p53. Description: p53 activation. The series is classed as cell-based.
In the next series the test system is WEHI-R4 cells. The procedure:
WEHI-R4 cells (5×10^6) were implanted subcutaneously in the back of immunocompetent female BALB/c mice. Siramesine treatment commenced two days prior to tumor implant. Mice were divided into groups (5-9/group) and administered peroral 200 μL 1) vehicle (0.5% methylcellulose 15 in 0.9% NaCl solution), 2) 100 mg/kg/day Siramesine in suspension (in 0.5% methylcellulose 15 in 0.9% NaCl solution) 7 days per week. For combinational in vivo studies, 50 mg/kg siramesine was administered 7 days/week in combination with a single dose of etoposide (i.p.) up to 30 mg/kg (administered on day one). Tumor volumes were estimated by the use of a caliper. The effect of the drugs on the tumor growth was monitored over 14-21 days before the mice were sacrificed.

Series [5] concerns WEHI-S cells. Description: Induction of cell death in combination with chemotherapeutics. The series is classed as cell-based, murine. The settings on record: together with etoposide, doxorubicin, staurosporin, vincristine and tamoxifen.
Excerpt: as §1, §2

SMILES strings stand for the structures.

As for `Fc1ccc(-n2cc(CCCCN3CCC4(CC3)OCc3ccccc34)c3ccccc32)cc1` [Siramesine, 1′-[4-[1-(4-fluorophenyl)-1H-indole-3-yl]-1-butyl]-spiro[isobenzofuran-1(3H)4′-piperidine]], the “induction of programmed cell death” value in [1] is “effectively induces programmed cell death”. Further, in series [2], the “sensitivity of cells towards Siramesine” value is recorded as “increased”. In addition, the “potency as inducer of apoptosis versus reference sigma ligands” value in the series with WEHI-S cells [3] was “significantly more potent inducer of apoptosis than Haloperidol and pentazocine”; in the series on MCF7 cells, “significantly more potent inducer of apoptosis than Haloperidol and pentazocine”. Moreover, the effector caspase activation entry in the series on effector caspase is recorded as “absence of effector caspase activation”. Moreover, in the series with effector caspase (based on nuclear morphological changes and absence of protection by pharmacological caspase inhibitors), the mode of death entry is listed as “caspase-independent”. Further, the “effect of pharmacological cathepsin inhibitors on siramesine-induced death” value with lysosomal cathepsins is listed as “can attenuate the death”. Besides, the “release of lysosomal cathepsins into the cytosol” value in the series with lysosomal cathepsins (immunohistochemical staining of cathepsin B and L, in vitro release from purified lysosomes) was “release of lysosomal cathepsins into the cytosol seems to be involved in the execution of the death process”. In series [4], the “killing of Bcl-2 expressing tumor cells” value was “effectively killed”. For the same compound, the “activation of p53” value with p53 is reported as “does not activate p53”. Moreover, the “effect on tumor growth” value in the series with WEHI-R4 cells (BALB/c mice, siramesine alone, peroral) is listed as “anti-tumorigenic effect”. For the same compound, the “effect on tumor growth, combination with etoposide” value in the series with WEHI-R4 cells (BALB/c mice, siramesine and etoposide versus groups single-treated) was “combinational effect”. Also, the tolerability in vivo entry with WEHI-R4 cells (mouse, in vivo) is “well tolerated”. Moreover, the “interaction with chemotherapeutics in induction of cell death” value with WEHI-S cells [5] is recorded as “synergistic”.
